Laboratory results from BindingDB's records for doi:10.1126/science.abf1611 (Sichuan University, 2021).
Values joined by “and” are separate entries in the source; they are usually repeats but may differ in a detail not shown here. Equal values may be shown once.

What follows are molecules tested against T1, Replicase polyprotein 1ab (Severe acute respiratory syndrome coronavirus 2, UniProt P0DTD1) (assay: scanning fluorimetry assay of HPAEpiC cells).
Method: The differential scanning fluorimetry (DSF) assay was carried out on a CFX96 real-time PCR Detection System (Bio-Rad). […] The Mpro protein (final concentration: 2 μM) was pre-incubated with 40 μM of compounds for 30 min. […] The melt temperature (Tm) was calculated by using a Boltzmann model in GraphPad Prism 8.0 software. The thermal shift (ΔTm) was calculated using the equation ΔTm=Tm(compound)-Tm(DMSO). All experiments were performed in triplicate, and the values are presented as mean ± SD. HPAEpiC cells are used.
CC1(C)[C@@H]2[C@H](C(=O)N[C@H](C=O)C[C@@H]3CCNC3=O)N(C(=O)COc3ccc(Cl)cc3)C[C@@H]21 [MI-12] showed an EC50 of 7.3 nM.
In the case of CC1(C)[C@@H]2[C@H](C(=O)N[C@H](C=O)C[C@@H]3CCNC3=O)N(C(=O)COc3ccc(Cl)cc3Cl)C[C@@H]21 [MI-14], the EC50 is reported as 0.3 nM.
Work on O=C[C@H](C[C@@H]1CCNC1=O)NC(=O)[C@H]1[C@@H]2CCC[C@H]2CN1C(=O)COc1ccc(Cl)cc1 [MI-28] yielded an EC50 of 2.2 nM.
Work on O=C[C@H](C[C@@H]1CCNC1=O)NC(=O)[C@H]1[C@@H]2CCC[C@H]2CN1C(=O)COc1ccc(Cl)c(Cl)c1 [MI-31] yielded an EC50 of 0.4 nM.

What follows are molecules tested against T1, Replicase polyprotein 1ab (assay: The enzymatic inhibition assay).
Method: The enzymatic inhibition assay was carried out with a final concentration of 100 nM recombinant SARS-CoV-2 Mpro and 20 μM FRET substrate. […] The initial velocities were calculated from the first 1 min of each reaction curve. The IC50 values were calculated using a dose-response model in GraphPad Prism 8.0 software. All experiments were performed in triplicate, and the values are presented as mean ± standard deviation (SD).
For CC1(C)[C@@H]2[C@H](C(=O)N[C@H](C=O)C[C@@H]3CCNC3=O)N(C(=O)COc3ccc4ccccc4c3)C[C@@H]21 [11b], the IC50 was 52 nM and 27 nM.
CC1(C)[C@@H]2[C@H](C(=O)N[C@H](C=O)C[C@@H]3CCNC3=O)N(C(=O)c3ccc4ccccc4c3)C[C@@H]21 [MI-01] gave an IC50 of 453 nM.
CC1(C)[C@@H]2[C@H](C(=O)N[C@H](C=O)C[C@@H]3CCNC3=O)N(C(=O)CCc3cccc(F)c3)C[C@@H]21 [MI-03] gave an IC50 of 17 nM.
CC1(C)[C@@H]2[C@H](C(=O)N[C@H](C=O)C[C@@H]3CCNC3=O)N(C(=O)COc3cc(F)cc(F)c3)C[C@@H]21 [MI-04] showed an IC50 of 19 nM.
Molecule CC1(C)[C@@H]2[C@H](C(=O)N[C@H](C=O)C[C@@H]3CCNC3=O)N(C(=O)COc3ccc(F)c(F)c3)C[C@@H]21 [MI-05] has an IC50 of 13 nM.
COc1ccc(OCC(=O)N2C[C@H]3[C@@H]([C@@H]2C(=O)N[C@H](C=O)C[C@@H]2CCNC2=O)C3(C)C)cc1OC [MI-06] showed an IC50 of 15 nM.
CC1(C)[C@@H]2[C@H](C(=O)N[C@H](C=O)C[C@@H]3CCNC3=O)N(C(=O)COc3ccc(C(F)(F)F)cc3)C[C@@H]21 [MI-07] gave an IC50 of 43 nM.
For COc1ccc(OCC(=O)N2C[C@H]3[C@@H]([C@@H]2C(=O)N[C@H](C=O)C[C@@H]2CCNC2=O)C3(C)C)cc1F [MI-08], the IC50 was 37 nM.
CC1(C)[C@@H]2[C@H](C(=O)N[C@H](C=O)C[C@@H]3CCNC3=O)N(C(=O)COc3ccc(Cl)c(Br)c3)C[C@@H]21 [MI-10] was tested, and the IC50 was 51 nM.
CC1(C)[C@@H]2[C@H](C(=O)N[C@H](C=O)C[C@@H]3CCNC3=O)N(C(=O)COc3ccc(Br)cc3Cl)C[C@@H]21 [MI-11] gave an IC50 of 13 nM.
Work on CC1(C)[C@@H]2[C@H](C(=O)N[C@H](C=O)C[C@@H]3CCNC3=O)N(C(=O)COc3ccc(Cl)cc3)C[C@@H]21 [MI-12] yielded an IC50 of 19 nM.
In the case of CC1(C)[C@@H]2[C@H](C(=O)N[C@H](C=O)C[C@@H]3CCNC3=O)N(C(=O)COc3ccc(Cl)c(Cl)c3)C[C@@H]21 [MI-13], the IC50 is reported as 12 nM.
CC1(C)[C@@H]2[C@H](C(=O)N[C@H](C=O)C[C@@H]3CCNC3=O)N(C(=O)COc3ccc(Cl)cc3Cl)C[C@@H]21 [MI-14] was tested, and the IC50 was 13 nM.
O=C[C@H](C[C@@H]1CCNC1=O)NC(=O)[C@H]1[C@@H]2CCC[C@H]2CN1C(=O)c1cccnc1 [MI-15] was tested, and the IC50 was 749 nM.
For O=C[C@H](C[C@@H]1CCNC1=O)NC(=O)[C@H]1[C@@H]2CCC[C@H]2CN1C(=O)c1cc2ccccc2[nH]1 [MI-16], the IC50 was 153 nM.
Molecule O=C[C@H](C[C@@H]1CCNC1=O)NC(=O)[C@H]1[C@@H]2CCC[C@H]2CN1C(=O)c1cc2ccccn2n1 [MI-17] has an IC50 of 299 nM.
O=C[C@H](C[C@@H]1CCNC1=O)NC(=O)[C@H]1[C@@H]2CCC[C@H]2CN1C(=O)/C=C/c1ccccc1 [MI-18] gave an IC50 of 526 nM.
Molecule COc1ccc(/C=C/C(=O)N2C[C@@H]3CCC[C@H]3[C@@H]2C(=O)N[C@H](C=O)C[C@@H]2CCNC2=O)c(OC)c1 [MI-19] has an IC50 of 196 nM.
CNc1ccc(/C=C/C(=O)N2C[C@@H]3CCC[C@H]3[C@@H]2C(=O)N[C@H](C=O)C[C@@H]2CCNC2=O)cc1 [MI-20] was tested, and the IC50 was 375 nM.
For O=C[C@H](C[C@@H]1CCNC1=O)NC(=O)[C@H]1[C@@H]2CCC[C@H]2CN1C(=O)CCc1ccc(F)c(F)c1 [MI-22], the IC50 was 17 nM.
For CN(C)c1ccc(CCC(=O)N2C[C@@H]3CCC[C@H]3[C@@H]2C(=O)N[C@H](C=O)C[C@@H]2CCNC2=O)cc1 [MI-24], the IC50 was 378 nM.
COc1ccc(OCC(=O)N2C[C@@H]3CCC[C@H]3[C@@H]2C(=O)N[C@H](C=O)C[C@@H]2CCNC2=O)cc1 [MI-25] was tested, and the IC50 was 36 nM.
In the case of COc1ccc(OC(C)C(=O)N2C[C@@H]3CCC[C@H]3[C@@H]2C(=O)N[C@H](C=O)C[C@@H]2CCNC2=O)cc1 (stereo partly specified) [MI-26], the IC50 is reported as 69 nM.
With O=C[C@H](C[C@@H]1CCNC1=O)NC(=O)[C@H]1[C@@H]2CCC[C@H]2CN1C(=O)COc1ccc2c(c1)OCCO2 [MI-27] the IC50 was 94 nM.
O=C[C@H](C[C@@H]1CCNC1=O)NC(=O)[C@H]1[C@@H]2CCC[C@H]2CN1C(=O)COc1ccc(Cl)cc1F [MI-29] gave an IC50 of 35 nM.
Work on O=C[C@H](C[C@@H]1CCNC1=O)NC(=O)[C@H]1[C@@H]2CCC[C@H]2CN1C(=O)COc1ccc(Cl)c(Cl)c1 [MI-31] yielded an IC50 of 30 nM.
Molecule Cc1cc(Cl)ccc1OCC(=O)N1C[C@@H]2CCC[C@H]2[C@@H]1C(=O)N[C@H](C=O)C[C@@H]1CCNC1=O [MI-32] has an IC50 of 20 nM.

The molecules below were run against T1, Replicase polyprotein 1ab (assay: not given).
For CC1(C)[C@@H]2[C@H](C(=O)N[C@H](C=O)C[C@@H]3CCNC3=O)N(C(=O)COc3ccc4ccccc4c3)C[C@@H]21 [11b], the EC50 was 75 nM.
With CC1(C)[C@@H]2[C@H](C(=O)N[C@H](C=O)C[C@@H]3CCNC3=O)N(C(=O)COc3ccc(Cl)cc3)C[C@@H]21 [MI-12] the EC50 was 97 nM.
In the case of CC1(C)[C@@H]2[C@H](C(=O)N[C@H](C=O)C[C@@H]3CCNC3=O)N(C(=O)COc3ccc(Cl)cc3Cl)C[C@@H]21 [MI-14], the EC50 is reported as 85 nM.
O=C[C@H](C[C@@H]1CCNC1=O)NC(=O)[C@H]1[C@@H]2CCC[C@H]2CN1C(=O)COc1ccc(Cl)cc1 [MI-28] was tested, and the EC50 was 42 nM.
Work on O=C[C@H](C[C@@H]1CCNC1=O)NC(=O)[C@H]1[C@@H]2CCC[C@H]2CN1C(=O)COc1ccc(Cl)c(Cl)c1 [MI-31] yielded an EC50 of 62 nM.
